In article PMC3694003 (PLoS ONE, 2013):
Like-named read-outs stand apart in the source and are kept apart here. Bridge positions count the residues as written; N and C are the ends. Ends that are not written are not given here. Peptide text beside a SMILES is read from it.

Columns and labels:
[1] = test system: primary activated human lymphocytes (PBMCs); format: cell-based; settings: for immunosuppressive activity: mutation in hydrophilic 'bioactive face', Table 1, Figure 2
Description: (§1) Purified T-cells were obtained by CD3^+ positive selection using magnetic cell separation method according to manufacturer’s instructions (StemCell Technologies, Grenoble, France). Cells were washed twice with medium and cell viability as well as concentration was determined using the trypan blue exclusion test.
(§2) After cultivation, the cells were assessed in biological tests as described. Alternatively for IL-2 supplementation assays, lymphocytes or purified T-cells were equilibrated for 2 h at 37°C.

[2] = test system: purified human T-cells (CD3+); format: cell-based; settings: cyclotides 1.8-14 µM
Description: as §1, §2

[3] = test system: IL-2 surface receptor CD25; format: cell-based, human; settings: 4 µM; for IL-2 surface receptor CD25 expression compared to stimulated lymphocytes (ctrl, 100%): mean ± SD
Description: as §2
Cultured cells were washed with PBS and stained with PE-labeled anti-human CD25 mAbs (eBioscience) for 15 min at 4°C. Afterwards, the cells were washed twice with PBS and resuspended and transferred into FACS vials and expression of the IL-2 surface receptor α-chain CD25 was measured by FACS analysis using a FACSCalibur instrument.

[4] = test system: IL-2 release of activated lymphocytes; format: cell-based, human; settings: 4 µM; 24 h then PMA/ionomycin 6 h; mean ± SD
Description: as §2
(§3) Cells were treated for 24 or 36 h, respectively and were restimulated with PMA (50 ng/mL) and ionomycin (500 ng/mL) for additional 6 h. Supernatants were harvested by centrifugation and were stored at -20°C. The amount of cytokines was measured and quantified using the FlowCytomix^TM technique according to manufacturer’s instructions (eBioscience) or alternatively intracellular cytokine production was determined. For this purpose the cells were fixed and permeabilized using 4% paraformaldehyde (Sigma-Aldrich) and Perm/Wash solution (Becton Dickinson), followed by staining with PE-conjugated anti-human IFN-γ mAb or anti-human TNF-α mAb (both from eBioscience), respectively. For CD107a degranulation assay, cells were restimulated with PMA (10 or 50 ng/mL, respectively) und ionomycin (100 or 500 ng/mL, respectively) and to each well containing 200 µL of cell suspension, 5 µL (~0.25 µg) PE-conjugated anti-CD107a mAb (eBioscience) were added. After incubation at 37°C for 1 h, 2 µL of 1/10 diluted GolgiStop (Becton Dickinson) was added per well and the plates were incubated for another 2.5 h. Samples were analyzed with a BD FACSCalibur flow cytometer using BD CellQuest Pro Software.

[5] = test system: IL-2 release of purified T-cells; experiment: IL-2 secretion of purified T-cells, ELISA-based; format: cell-based, human; settings: 4 µM; 24 h then PMA/ionomycin 6 h; relative to [V10K] kalata B1
Description: as §2, §3

il-2 mRNA = experiment: il-2 gene expression, quantitative RT-PCR; format: cell-based, human; settings: 4 µM; lymphocytes; normalized to 18s rRNA
Description: Total RNA was extracted from controls or treated cells (4 x 10^6) and frozen at -80°C until further use. RNA purification was performed according to the manufacturer’s instructions for the RNeasy mini and RNAse-Free DNAse digestion kits (Qiagen, Hamburg, Germany). The quantity and purity of extracted RNA was measured by nanodrop spectrophotometry (Peqlab, Erlangen, Gemany) and purified RNA was reverse transcribed using the RT^2 First Strand Kit (Qiagen). RT-PCR reactions were carried out on a MyiQ kit (BioRad, Munich, Germany) in a final volume of 25 µL using RT² qPCR Primer Assay (for il-2) and SYBR® Green qPCR master mix (both from Qiagen). Each determination was performed in duplicate and the housekeeping gene 18s rRNA was used as an internal control. The real-time thermal cycler program comprised an initial denaturation step at 95 °C for 10 min followed by a two-step program with 40 cycles (95°C, 15 sec; and 60°C, 60 sec). The relative gene expression of il-2 has been determined by comparative cycle threshold analysis and the data were normalized to the internal housekeeping gene 18s rRNA and the relative mRNA level in the untreated group (untreated PHA-L-activated).

[6] = test system: primary human lymphocytes; format: cell-based; settings: for proliferation compared to control, pretreated and washed cells with exogenous IL-2 / proliferation compared to control cells, pretreated and washed cells without exogenous IL-2: 4 µM pretreatment, PHA-L 10 µg/mL, day three, mean ± SD, three experiments; for proliferation compared to control, pretreated and washed cells with exogenous IL-2: recombinant human IL-2 added
Description: as §2
10 µg/milliliter PHA-L for 1 h. This was followed by washing off the substances and stimuli with PBS and resuspending the cells in medium for further assays as described.

IFN-γ = IFN-γ production of activated lymphocytes; format: cell-based, human; settings: 4 µM, mean ± SD; for IFN-γ concentration compared to control: 24 h post stimulation, supernatant, ELISA-based, three experiments
Description: as §3

TNF-α = TNF-α production of activated lymphocytes; format: cell-based, human; settings: 4 µM, mean ± SD; for TNF-α production compared to control: 36 h post stimulation, intracellular cytokine flow cytometry
Description: as §3

[7] = test system: degranulation marker LAMP-1 (CD107a); experiment: CD107a degranulation assay; format: cell-based, human; settings: 36 h, 4 µM, mean ± SD, three experiments
Description: as §3

[8] = test system: Ca2+-release in human primary T-cells; experiment: Ca2+-release assay in T-cells; format: cell-based; settings: for inhibition or delay of PMA/ionomycin-triggered Ca2+-release after pretreatment: 4 µM overnight (16 h), Fluo-4/Fura Red flow cytometry; for direct change in Ca2+-signaling: 4 µM, Fura-2 loaded T-cells, fluorometer
Description: Human primary T-cells (1 x 10^6/mL) were loaded with 1 µM Fura-2 and 0.02% Puronic F-127 for 30 min at 37°C. Cells were centrifuged for 5 min at 1200 rpm and resuspended in RPMI 1640 media supplemented with 10% fetal calf serum, penicillin (100 U/mL) and streptomycin (100 U/mL). 100 µL of cell suspension were transferred into a black 96-well plate with a clear flat-bottom. Briefly before analysis the fluorometer Synergy H4 (BioTek, Winooski, VT) was equilibrated to 37°C. The fluorescence time course was measured with: extinction at 340 and 380 nm, respectively, and emission at 510 nm in 30 sec intervals, while continuously shaking. […] To receive maximum Ca^2+-release, cells were stimulated with PMA (50 ng/mL) and ionomycin (500 ng/mL). For lowest Ca^2+-levels, cells remained untreated. […] (4 µM each) or left untreated over night at 37°C in a 24-well flat-bottom plate. Cells were stained for 15 min with Fluo-4 (2 µM) and Fura Red (4 µM), centrifuged at 1000 rpm for 5 min and resuspended in medium. Ca^2+-release was measured by time-dependent flow cytometry using BD FACSCalibur as described previously. Fluo-4 and Fura Red signals were detected using flow cytometric analysis. After equilibrating basal calcium levels for 60 sec, PMA (50 ng/mL) and ionomycin (500 ng/mL) were added to the preincubated T-cells. Fluorescence ratio was calculated using WEASEL 2.3 software.

[9] = test system: lymphocytes and purified T-cells; experiment: Cytotoxicity in proliferation experiments; format: cell-based, human; settings: analyzed concentration range up to 14 µM
Description: as §2

Row | Compound | IL-2 surface receptor CD25 expression compared to stimulated lymphocytes (ctrl, 100%) ([3]; 24 h) | IL-2 surface receptor CD25 expression compared to stimulated lymphocytes (ctrl, 100%) ([3]; 36 h) | IL-2 release of T-lymphocytes compared to control cells [4] | level of il-2 mRNA compared to control (il-2 mRNA) | proliferation compared to control, pretreated and washed cells with exogenous IL-2 [6] | proliferation compared to control cells, pretreated and washed cells without exogenous IL-2 [6] | IFN-γ concentration compared to control (IFN-γ) | TNF-α production compared to control (TNF-α) | cells containing degranulation marker LAMP-1 as compared to control [7] | inhibition or delay of PMA/ionomycin-triggered Ca2+-release after pretreatment [8] | direct change in Ca2+-signaling [8] | immunosuppressive activity [1] | suppression of the proliferation of T-cells [2] | also measured
1 | CC(C)C[C@@H]1NC(=O)CNC(=O)[C@H](CC(N)=O)NC(=O)[C@H](CCCNC(=N)N)NC(=O)[C@H]([C@@H](C)O)NC(=O)[C@@H]2CSSC[C@@H]3NC(=O)[C@H]([C@@H](C)O)NC(=O)CNC(=O)CNC(=O)[C@H](C(C)C)NC(=O)[C@@H]4CSSC[C@H](NC(=O)[C@H](CCCCN)NC(=O)[C@H](CSSC[C@H](NC(=O)[C@H](C(C)C)NC(=O)[C@@H]5CCCN5C1=O)C(=O)NCC(=O)N[C@@H](CCC(=O)O)C(=O)N[C@@H]([C@@H](C)O)C(=O)N4)NC(=O)CNC(=O)[C@@H]1CCCN1C(=O)[C@H]([C@@H](C)O)NC(=O)[C@H](CC(N)=O)NC3=O)C(=O)N[C@@H](CO)C(=O)N[C@@H](Cc1c[nH]c3ccccc13)C(=O)N1CCC[C@H]1C(=O)N[C@@H](C(C)C)C(=O)N2 [[T20K]] (cyclo(CGETCVGGTCNTPGCKCSWPVCTRNGLPV); disulfide 1-15, 5-17, 10-22 (inferred); ring closure inferred) | 79% ± 10 | 46% ± 18 | 24% ± 19 | clearly decreased | 91% ± 1.4 | 29% ± 24 | 21% ± 13 | did not affect | 49% ± 17 | Neither cyclotides nor CsA induced any inhibition or a delay | did not induce any change | – | – | IC50 ([1]; CFSE flow cytometry, day three post stimulation, cyclotides 1.8-14 µM, non-linear regression (fixed slope), mean ± SD, a: n=7, b: n=4, c: n=3, read-out: IC50 (µM) ± SD, inhibition of lymphocyte (PBMC) proliferation): 1.9 ± 0.6 µM; IC50 ([2]; CFSE flow cytometry, day 3, non-linear regression (fixed slope), mean ± SD, c: n=3, d: n=2, read-out: IC50 (µM) ± SD, inhibition of purified T-cell proliferation): 2.7 ± 0.6 µM; IL-2 release of purified T-cells [5]: significantly decreased; restoring of normal proliferation by addition of IL-2 ([6]; peptide still present throughout the whole cultivation period (not washed off)): ineffective; IFN-γ level compared to control (IFN-γ; 36 h post stimulation, intracellular cytokine flow cytometry): no effect; TNF-α expression compared to control (TNF-α; 24 h post stimulation, supernatant, ELISA-based): 23% ± 11; cytotoxicity [9]: no signs of cytotoxicity
2 | [T8K]: single point-mutated lysine analogue of kalata B1, position 8 (GLPVCGEKCVGGTCNTPGCTCSWPVCTRN; ends and bridges not checked; cysteine pairing not given here; UniProt P56254 89-117, looked up, variant T8K) | – | – | – | – | – | – | – | – | – | – | – | lost their immunosuppressive activity | did not suppress | IC50 (µM) ± SD, inhibition of lymphocyte (PBMC) proliferation ([1]; CFSE flow cytometry, day three post stimulation, cyclotides 1.8-14 µM, non-linear regression (fixed slope), mean ± SD, a: n=7, b: n=4, c: n=3): not active (n.a.)^b
3 | [V10A]: single point-mutated alanine analogue of kalata B1, position 10 (cyclo(GLPVCGETCAGGTCNTPGCTCSWPVCTRN); disulfide 14-26, 5-19, 9-21; ends not checked; UniProt P56254 89-117, looked up, variant V10A) | – | – | – | – | – | – | – | – | – | – | – | lost their immunosuppressive activity | did not suppress | –
4 | [V10K]: single point-mutated lysine analogue of kalata B1, position 10; 'inactive' mutant (GLPVCGETCKGGTCNTPGCTCSWPVCTRN; ends and bridges not checked; cysteine pairing not given here; UniProt P56254 89-117, looked up, variant V10K) | – | – | no effect | – | did not have any effect | no effect | not affected | did not affect | no influence | Neither cyclotides nor CsA induced any inhibition or a delay | did not induce any change | lost their immunosuppressive activity | did not suppress | IL-2 receptor surface level ([3]; time not given): unaffected
5 | cyclosporin A [CsA, reference compound] | 76% ± 11 | 62% ± 7.3 | – | clearly decreased | – | – | – | – | 42% ± 21 | Neither cyclotides nor CsA induced any inhibition or a delay | did not induce any change | – | – | –
